Laboratory results reported in patent publication US10329273B2, “Tetrazolone-substituted dihydropyridinone MGAT2 inhibitors” (BRISTOL-MYERS SQUIBB COMPANY, priority 2014, dated 2019).

Biological target: human MGAT-2 (Homo sapiens (Human), UniProt Q3SYC2)
Experiment: MGAT LCMS assay
Assay type: biochemical
Details: human MGAT-2 membranes expressed in Sf9 cells; 100 μM 2-oleoylglycerol, 15 μM oleoyl-coenzyme A; read-out: h-MGAT LCMS IC50
Experimental: The MGAT enzyme reactions were performed in Corning FALCON® 96-well polypropylene plates, in a total volume of 60 μL of 50 mM potassium phosphate buffer pH 7.4, containing a final concentration of 100 μM 2-oleoylglycerol, 15 μM oleoyl-coenzyme A and 0.0013 μg/μL human or mouse MGAT-2 or 0.0026 μg/μL rat recombinant MGAT-2 membranes expressed in Sf9 cells. Assay plates were run through a fully automated robotics system and shaken for 5 seconds every minute for a total 10 minutes. The reactions were then quenched with 120 μL of ice cold methanol containing 1 μg/mL 1,2-distearoyl-rac-glycerol as the internal standard. Plates were shaken for 2 minutes and spun down to remove protein precipitation. After the spin, samples were transferred to LC/MS compatible PCR plates. For LC/MS analysis, a ThermoFisher Surveyor pump, utilizing a Waters SYMMETRY® C8, 50×2.1 mm column, was used for the chromatography of enzyme products. The buffer system consists of 0.1% formic acid in water with a mobile phase consisting 0.1% formic acid in methanol. The shallow gradient is 90-100% mobile phase in 0.2 min with a total run time of 2.3 min. […]
The exemplified Examples disclosed below were tested in the MGAT2 in vitro assays described above and were found having MGAT2 inhibitory activity. Table 1 below lists human MGAT2 IC50 values measured for the following examples.

Sequence of human MGAT-2 (Q3SYC2 whole entry): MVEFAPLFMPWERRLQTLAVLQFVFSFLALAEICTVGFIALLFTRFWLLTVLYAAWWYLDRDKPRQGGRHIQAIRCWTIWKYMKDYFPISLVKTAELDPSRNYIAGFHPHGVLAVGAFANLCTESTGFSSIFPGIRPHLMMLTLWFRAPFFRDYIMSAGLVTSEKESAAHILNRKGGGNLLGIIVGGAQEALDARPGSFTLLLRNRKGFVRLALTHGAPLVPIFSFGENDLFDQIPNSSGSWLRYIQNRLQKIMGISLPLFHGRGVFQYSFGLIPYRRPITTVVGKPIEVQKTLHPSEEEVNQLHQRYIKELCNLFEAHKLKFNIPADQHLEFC

## O=C1N[C@@](c2ccc(OCCCC(F)(F)F)cc2F)(C(F)(F)F)CC(c2ccn(CC3CCC3)n2)=C1n1nn[nH]c1=O [Example 16]
  IC50: 5 nM
